The test system of assay [1] is Human leukemia cells K562. Nature of the assay: Apoptosis in K562 cells, Annexin V / propidium iodide flow cytometry. Format: cell-based. The following applies: for apoptotic cells population: two days, background 10-15%. The protocol: • 1. Cells: Human leukemia cells K562 cultured in RPMI1640 medium. • 2. Drug: Tig-S (1000x stock solution in DMSO). • 3. Start cells concentration: 500000/ml. • 4. Cells were cultured with drug (0 - 20 ug/ml) for Two days. • 5. Collect cells from culture (1 - 4 million) by centrifugation (136xg for 5 min. remove supernatant). • 6. Wash cells with 1 ml of cold PBS, collect cells by centrifugation (136xg, 5 min, remove supernatant). • 7. Re-suspend cells in 200 ul Binding buffer (10 mM HEPES, 140 mM NaCl, 2.5 mM CaCl2, pH 7.4). • 8. Stained cells by adding 10 ul Annexin V (Alexa Fluor 488, Invitrogen cat# A13201), and 2 ul Propidium iodide (1 mg/ml in water) to cell suspension. Mix. • 9. Sit at Room temperature for 15 min. • 10. Wash cells with 1 ml binding buffer. Collect cells by centrifugation. • 11. Re-suspend cells with in 1 ml of binding buffer for analysis by flow cytometry. • 12. Flow Cytometry analysis was performed in Baylor Core Facility with a LSRII instrument. • 13. Analysis: Control cells stained with PI or Annexin V-488 (Annexin V-FITC) alone were served as references. About 50000 cells were analyzed for each sample. • 14.Cell distribution in following groups: live, early apoptosis, late-apoptosis, total apoptosis and dead cells were determined. • 15.
On the technique in general: In flow cytometry, cells or beads pass a laser one at a time.

Another assay deals with HepG2 cells. Description: Combined effect of anti-DR5 and Tig-R in HepG2 cells, MTT. It counts as cell-based, human. Here is the method:
Cells Culture: HepG2 cells (liver cancer cells) were cultured in DMEM medium supplemented with 10% FBS, antibiotics (Pen Strep) and L-Glutamine. Cells were incubated in a 37° C., 5% CO2 incubator.
Antibody: Antibody against Human TRAIL R2/TNFRSF 10B, (from R&D Systems cat# MAB631-100).
Drug: Tig-R (5 and 7.5 ug/ml in culture medium).
Treatment. Cells in log-growth phase were used. Cells were plated in 96-welled plate with 10 K/well over night before treatment.
Antibodies are serially diluted with medium (started from 1 ug/ml) before adding to cell culture and incubated for 2 days.
For combination studies, Tig-R (5 ug/ml or 7.5 ug/ml) were added together with antibody. After a treatment for 2 days, the quantity of live cells is determined with MTT assay*. The percentage of cell growth with drugs was determined by comparing to those of no-drug (DMSO) control.
MTT assay. Cell growth activity was determined by MTT assay (Carmichael et al.,). […] The formation of formazan was dissolved with DMSO and the O.D. at 490 nm was measured by an ELISA reader. The MTT level of cells before drug-treatment was also measured (T0). The % cell-growth (%G) is calculated as: %G = (TD-T0 / TC-T0) × 100 (1) where TC or TD represent O.D. readings of control or drug-treated cells.
When T0 > TD, then the negative growth (cytotoxicity) is expressed as - % of the control and is calculated as: - %G = (TD-T0 / T0) × 100.

In assay [2] the test system is DR5 (TNFRSF10B) in ES2 cells. Description: Induction of DR5 in ES2 cells, Western blot. Format: cell-based, human. Here is the method: 1). Cells and drug-treatment: ES2 cells (Ovarian cancer cells) were cultured in RPMI1640 medium with 10% FBS, antibiotics (Pen Strep) and L-Glutamine in a 37° C., 5% CO2 incubator. Cells in log-growth phase were treated with Tig-R (10 ug/ml), or DMSO (as control) for 2 days.
2). Total cell protein extraction: Drug-treated cells were collected, pelleted with centrifugation. The cell pellet was extracted with SDS-Sample buffer (containing PMSF and protease inhibitors cocktail). About 0.1 gram cell pellet was extracted in 1 ml of extraction buffer. The cell extract was then incubated in boiling water bath for 6 minutes with occasionally vortexing. The protein extract was immediately frozen in -80° C. before used.
3). SDS gel electrophoresis: 10-20 ug of protein sample was loaded into each lane of a 10% SDS gel. Electrophoresis was conducted with 100 volt constant for 2 hours.
4). Western Blot: Separated proteins from SDS gel were transferred to a nitrocellulose membrane, which was blocked with 5% non-fat dry milk. The membrane was then exposed to 1st antibody (anti-TNFRSF10B) over night, then washed. The membrane was then incubated in 2nd antibody (anti-mouse-AP conjugated) for an hour, then washed. The immuno-bands were developed with BCIP/NBT substrate.
5. Another SDS gel with same protein loading was stained with Coomassie Brilliant Blue (CBB) for protein staining.
A. Cells and drug-treatment: HepG2 cells (liver cancer cells), CAPAN cells, ES2 cells (Ovary cell) were cultured in DMEM medium with 10% FBS, antibiotics (Pen Strep) and L-Glutamine in a 37° C., 5% CO2 incubator. Cells in log-growth phase were treated with Tig-R (10 ug/ml), Tig-S (4 ug/ml) or DMSO (as control) for 2 days.
B. Total cell protein extraction: Drug-treated cells were collected, pelleted with centrifugation. The cell pellet was extracted with SDS-Sample buffer (containing PMSF and protease inhibitors cocktail). About 0.1 gram cell pellet was extracted in 1 ml of extraction buffer. The cell extract was then incubated in boiling water bath for 6 minutes with occasionally vortexing. The protein extract was immediately frozen in -80° C. before used.
C. SDS gel electrophoresis: 10-20 ug of protein sample was loaded into each lane of a 10% SDS gel. Electrophoresis was conducted with 100 volt constant for 2 hours.
D. Western Blot: Separated proteins from SDS gel were transferred to a nitrocellulose membrane, which was blocked with 5% non-fat dry milk. The membrane was then exposed to 1st antibody (anti-TNFRSF10B) over night, then washed. The membrane was then incubated in 2nd antibody (anti-mouse-AP conjugated) for an hour, then washed. The immuno-bands were developed with BCIP/NBT substrate.
E. Another SDS gel with same sample loading was stained with Coomassie Brilliant Blue (CBB) for protein staining.
F. Determination of Western blot band intensity: The band-images of Western blot were captured with a digital camera and the intensity of bands was determined using “Image J” software.

Where [3] appears, read: ES2 cells, Tig-R, 2 days, single experiments 2-5.

Values joined by “and” are separate entries in the source; they are usually repeats but may differ in a detail not shown here. Equal entries are not always repeated.

Regarding `CC=C(C)C(=O)OCC1(C)C(O)CCC2(C)C1CCC1(C)C2CC=C2C3CC(C)(C)C(OC(=O)C(C)=CC)C(O)C3(CO)C(O)CC21C` (stereo not shown) [Tig-S], the apoptotic cells population in assay [1] (2.5 ug/ml) is recorded as 15%; in assay [1] (20 ug/ml), 27%. Also, the “mechanism of cell death” value in assay [1] (K562) is “induces cell-death by the apoptosis mechanism”.

“24,28-O-Tigloyl-3β,16α, 21β, 22a, 24β, 28-hexahydroxyolean-12-ene [Tig-R]”: in the assay with HepG2 cells (HepG2, Tig-R 5 or 7.5 ug/ml), the “combined effect with anti-DR5 antibody” value is on record as “synergistic”. The “inhibition of HepG2 cells' growth” value with HepG2 cells (Tig-R alone 5 ug/ml, 2 days) is recorded as 15-20%. Also, the “increase of DR5 over DMSO control cells” value in assay [2] (ES2, Tig-R 10 ug/ml, 2 days (Experiment 46)) was 61%. In assay [2] (ES2 cells, 10 ug/ml, 2 days (Experiment 42)), the “increase of DR5” value is reported as “at least 2 folds”. The “DR5 band intensity, % of DMSO, Average (%)” value in assay [2] (ES2 cells, Tig-R, 2 days, average of 5 experiments) came out at 161%. Besides, in assay [2] (setting [3]), the “DR5 Western blot band intensity (Image J)” value was 25103 and 17941 and 17133 and 19157; the “DR5 band intensity, % of DMSO” value is 185% and 200% and 148% and 113%.

For the origin of these results see patent publication US20230340012A1, “NATURAL AND SYNTHETIC COMPOUNDS FOR TREATING CANCER AND OTHER DISEASES” (PACIFIC ARROW LIMITED, priority 2009, published 2023).
